Reference: US5741811A, “Polythiophene anti-tumor agents” (Purdue Research Foundation, priority 1996, dated 1998)

Columns and labels:
Experiment in all cases: NCI human tumor cell line panel growth inhibition
Type in all cases: cell-based
SK-MEL-28 melanoma cells = details: read-out: Log10 GI50 (converted)
Text: (§1) The cytotoxic activity of the present polythiophene compounds have been measured utilizing three different assays or screens. The first screen measures the cytotoxicity against a panel of sixty different human tumor cell lines. This assay provides data regarding the general cytotoxicity of an individual compound. In particular this type of assay is useful in identifying compounds which have enhanced cytotoxic activity against slow growing tumors as compared to faster growing tumor cells such as leukemia tumor cell lines. The identification of such compounds is critical since previously identified antitumor agents have low cytotoxic activity against slower growing tumors. […] The specificity of a cytotoxic compound for tumor cell lines relative to normal cells is an important characteristic of an effective antitumor agent.
(§2) The length of a bar is indicative of differential cytotoxicity against a specific type of tumor cells or tumor panels.
(§3) The antitumor cytotoxicity of the thiophene compounds tested in the first two in vitro assays was measured by a microculture assay using either 3-(4,5-dimethylthiazol-2-yl)-2,5-diphenyltetrazolium bromide (MTT) or sulforhodamine B (SRB). [M. R. Boyd in "Principles and Practices of Oncology," V. T. DeVita, Jr., S. Hellman and S. A. Rosenberg (Eds.), Vol. 3, PPO Updates, Number 10, 1989.] This assay has an advantage over in vivo assay in that results are obtained within a week as opposed to several months. The assay was carried out in 96-well microtiter plates. The MTT assay is based on the production of a dark blue formazan product by dehydrogenase in the mitochondria of live tumor cells after exposure to drug for 6 days [M. C. Alley, D. A. Scudiero, A. Monks, M. L. Hursey, M. J. Czerwinski, D. L. Fine, B. J. Abbott, J. G. Mayo, R. H. Shoemaker and M. R. Boyd, Cancer Res., 48, 589, 1988.] Thus, only live cells are stained and can be measured at 570 nm. The SRB assay is based on the binding of the anionic group to the basic amino acid residues of cellular proteins after exposure of tumor cells to drug for 2 days [P. Skehan, R. Storeng, D. Scudiero, A. Monks, J. McMahon, D. Vistica, J. T. Warren, H. Bohesch, S. Kenney and M. R. Boyd, J. Nat. Cancer Inst., 82, 1107, 1990.] Thus, the total protein (viability) can be measured at 564 nm.

[1] = test system: MDA-N breast cancer cells; details: read-out: Log10 GI50 (converted)
Text: as §1, §2, §3

[2] = test system: OVCAR-4 ovarian cancer cells; details: Homo sapiens, read-out: Log10 GI50 (converted)
Text: as §1, §2, §3

[3] = test system: BT-549 breast cancer cells; details: read-out: Log10 GI50 (converted)
Text: as §1, §2, §3

[4] = test system: PC-3 prostate cancer cells; details: read-out: Log10 GI50 (converted)
Text: as §1, §2, §3

[5] = test system: MDA-MB-231/ATCC breast cancer cells; details: read-out: Log10 GI50 (converted)
Text: as §1, §2, §3

SF-539 CNS cancer cells = details: read-out: Log10 GI50 (converted)
Text: as §1, §2, §3

SK-MEL-5 melanoma cells = details: read-out: Log10 GI50 (converted)
Text: as §1, §2, §3

[6] = test system: MDA-MB-435 breast cancer cells; details: read-out: Log10 GI50 (converted)
Text: as §1, §2, §3

MCF7 breast cancer cells = details: read-out: Log10 GI50 (converted)
Text: as §1, §2, §3

[7] = test system: DU-145 prostate cancer cells; details: read-out: Log10 GI50 (converted)
Text: as §1, §2, §3

[8] = test system: HS 578T breast cancer cells; details: read-out: Log10 GI50 (converted)
Text: as §1, §2, §3

KM12 colon cancer cells = details: Homo sapiens, read-out: Log10 GI50 (converted)
Text: as §1, §2, §3

HOP-92 lung cancer cells = details: Homo sapiens, read-out: Log10 GI50 (converted)
Text: as §1, §2, §3

[9] = test system: MCF7/ADR-RES breast cancer cells; details: read-out: Log10 GI50 (converted)
Text: as §1, §2, §3

MALME-3M melanoma cells = details: read-out: Log10 GI50 (converted)
[10] = test system: RXF-393 renal cancer cells; details: Homo sapiens, read-out: Log10 GI50 (converted)
TK-10 renal cancer cells = details: Homo sapiens, read-out: Log10 GI50 (converted)
UACC-257 melanoma cells = details: Homo sapiens, read-out: Log10 GI50 (converted)
SF-295 CNS cancer cells = details: read-out: Log10 GI50 (converted)
[11] = test system: NCI-H322M lung cancer cells; details: Homo sapiens, read-out: Log10 GI50 (converted)
[12] = test system: HCT-15 colon cancer cells; details: Homo sapiens, read-out: Log10 GI50 (converted)
[13] = test system: OVCAR-8 ovarian cancer cells; details: Homo sapiens, read-out: Log10 GI50 (converted)
Experimental: The first screen measures the cytotoxicity against a panel of sixty different human tumor cell lines. This assay provides data regarding the general cytotoxicity of an individual compound.
as §2, §3

[14] = test system: T-47D breast cancer cells; details: T47D, read-out: Log10 GI50 (converted)
Experimental: The assay was carried out in 96-well microtiter plates. The MTT assay is based on the production of a dark blue formazan product by dehydrogenase in the mitochondria of live tumor cells after exposure to drug for 6 days [M. C. […] The SRB assay is based on the binding of the anionic group to the basic amino acid residues of cellular proteins after exposure of tumor cells to drug for 2 days [P. Skehan, R. Storeng, D. Scudiero, A. Monks, J. McMahon, D. Vistica, J. T. Warren, H. Bohesch, S. Kenney and M. R. Boyd, J. Nat.

[15] = test system: HCT-116 colon cancer cells; details: Homo sapiens, read-out: Log10 GI50 (converted)
[16] = test system: IGROV-1 ovarian cancer cells; details: Homo sapiens, read-out: Log10 GI50 (converted)
[17] = test system: HCC-2998 colon cancer cells; details: Homo sapiens, read-out: Log10 GI50 (converted)
HT29 colon cancer cells = details: Homo sapiens, HT-29, read-out: Log10 GI50 (converted)
ACHN renal cancer cells = details: read-out: Log10 GI50 (converted)
[18] = test system: CAKI-1 renal cancer cells; details: Homo sapiens; CAKI-1, renal cancer; read-out: Log10 GI50 (converted)
U251 CNS cancer cells = details: Homo sapiens, U-251, read-out: Log10 GI50 (converted)
SNB-75 CNS cancer cells = details: Homo sapiens, read-out: Log10 GI50 (converted)
SF-268 CNS cancer cells = details: read-out: Log10 GI50 (converted)
SK-MEL-2 melanoma cells = details: read-out: Log10 GI50 (converted)
[19] = test system: OVCAR-3 ovarian cancer cells; details: Homo sapiens; OVCAR-3, ovarian cancer; read-out: Log10 GI50 (converted)
[20] = test system: COLO-205 colon cancer cells; details: Homo sapiens; COLO-205, colon cancer; read-out: Log10 GI50 (converted)
[21] = test system: NCI-H23 lung cancer cells; details: read-out: Log10 GI50 (converted)
SNB-19 CNS cancer cells = details: Homo sapiens, read-out: Log10 GI50 (converted)
[22] = test system: NCI-H226 lung cancer cells; details: Homo sapiens, read-out: Log10 GI50 (converted)
UACC-62 melanoma cells = details: Homo sapiens, read-out: Log10 GI50 (converted)
M-14 melanoma cells = details: M14, read-out: Log10 GI50 (converted)
A-498 renal cancer cells = details: Homo sapiens, A498, read-out: Log10 GI50 (converted)
[23] = test system: OVCAR-5 ovarian cancer cells; details: Homo sapiens, read-out: Log10 GI50 (converted)
LOX IMVI melanoma cells = details: read-out: Log10 GI50 (converted)
[24] = test system: NCI-H460 lung cancer cells; details: Homo sapiens, read-out: Log10 GI50 (converted)

Q: What does the source list for OCc1csc(-c2ccc(-c3ccc(CO)s3)s2)c1 [drawing 38]?
A: GI50 (SK-MEL-28 melanoma cells): > 10 µM; GI50 [1]: 9.55 µM; GI50 [2]: 0.302 µM; GI50 [3]: > 10 µM; GI50 [4]: > 10 µM; GI50 [5]: > 10 µM; GI50 (SF-539 CNS cancer cells): > 10 µM; GI50 (SK-MEL-5 melanoma cells): > 10 µM; GI50 [6]: 4.37 µM; GI50 (MCF7 breast cancer cells): 0.138 µM; GI50 [7]: > 10 µM; GI50 [8]: 7.76 µM; GI50 (KM12 colon cancer cells): > 10 µM; GI50 (HOP-92 lung cancer cells): 9.33 µM; GI50 [9]: > 10 µM; GI50 (MALME-3M melanoma cells): > 10 µM; GI50 [10]: > 10 µM; GI50 (TK-10 renal cancer cells): 0.0794 µM; GI50 (UACC-257 melanoma cells): 0.038 µM; GI50 (SF-295 CNS cancer cells): > 10 µM; GI50 [11]: 4.27 µM; GI50 [12]: > 10 µM; GI50 [13]: > 10 µM; GI50 [14]: 0.224 µM; GI50 [15]: 0.107 µM; GI50 [16]: 0.145 µM; GI50 [17]: 5.89 µM; GI50 (HT29 colon cancer cells): 0.234 µM; GI50 (ACHN renal cancer cells): > 10 µM; GI50 [18]: 0.0251 µM; GI50 (U251 CNS cancer cells): 5.62 µM; GI50 (SNB-75 CNS cancer cells): 2 µM; GI50 (SF-268 CNS cancer cells): > 10 µM; GI50 (SK-MEL-2 melanoma cells): > 10 µM; GI50 [19]: 0.0692 µM; GI50 [20]: 0.191 µM; GI50 [21]: > 10 µM; GI50 (SNB-19 CNS cancer cells): > 10 µM; GI50 [22]: 0.0141 µM; GI50 (UACC-62 melanoma cells): 0.182 µM; GI50 (M-14 melanoma cells): > 10 µM; GI50 (A-498 renal cancer cells): 0.0158 µM; GI50 [23]: 0.126 µM; GI50 (LOX IMVI melanoma cells): > 10 µM; GI50 [24]: 0.0389 µM
